Tested on: triple negative human breast cancer xenograft
Assay: Triple-negative human breast cancer xenograft, MSFE after two days of treatment
Assay type: in vivo, SCID Beige mice
Conditions: 250 mcg, n=3, P<0.05
From the text: A tumor line derived from a “triple negative” (ER-negative, PgR-negative, and HER-2 negative) human breast cancer biopsy specimen was transplanted into immunocompromised SCID Beige mice. The animals (n=3) received two doses of vehicle control, 2 different doses of Cpd 188 (125 or 250 mcg), a G-quartet oligodeoxynucleotide (GQ-ODN, T40214; GQ-I) previously determined to target Stat3 (Jing et al., 2004) and a control non-specific ODN (GQ-II) each at two doses (125 or 250 mcg). The animals were sacrificed after only two days of treatment, and MSFE determined.
Xenograft assays. One can use two xenografts developed from human breast cancer biopsies that express activated p-Stat3 by IHC. From these established xenograft lines, for each of the top 5 inhibitors, the following studies may be undertaken: a) short term experiments with stem cell inhibitors at two doses vs. vehicle control and b) the optimal dose of the combination of chemotherapy with each of the five stem cell inhibitors.
a) Short term (2-day) experiments: One can test the five inhibitors at 2 doses. […]
b) Long-term (2-week studies) experiments: One can assess the effect of the self-renewal inhibitor on tumor growth and stem cell behavior. […] Size of the xenografts is monitored longitudinally by caliper measurement using the RECIST criteria for assessment of tumor response. […]

O=C(O)CSc1cc(NS(=O)(=O)c2ccc(C(=O)O)cc2)c2ccccc2c1O [Cpd188, 4-[({3-[(carboxymethyl)thio]-4-hydroxy-1-naphthyl}amino)sulfonyl]benzoic acid]
reduction in MSFE compared to control: significant reduction
